{
  "source": "patent US6379676B2",
  "about": "“Enhancing immune response in animals” (priority 1999, dated 2002)",
  "tested_on": "E. coli",
  "description": "The term “resistant to contamination by pathogenic bacteria” means that a challenge with 1000 colony forming units (CFU) per gram of feed results in the death of substantially all the bacteria within 24 to 72 hours. In particular, the term “resistance to contamination by Salmonella or E. coli” means that a challenge with 1000 CFUs of Salmonella or E. coli per gram of feed results in 1 CFU or less per 25 grams of feed after 24 hours incubation at 25° C.\nOne set of samples was treated with a coarse spray (270 microns) at 1.8 gal/hr. (6.81 liters/hr.) and another was treated with fine mist (43 microns) at 25.5 gal/hr. (96.5 liters/hr.). Each sample of 500 grams was challenged with 20 ml of a liquid inoculum of Escherishia coli (>10^6 CFU/ml) one week after treatment.",
  "data": [
    {"smiles": "C=O", "note": "[formaldehyde]", "values": [
      {"measurement": "time finished feed resists contamination by E. coli", "setting": "2 lbs. (0.91 kg) dry wt. per metric ton, 2.0% CV, 1000 CFUs/gram of feed", "result": "about 60 days"},
      {"measurement": "resistance as measured by challenge with E. coli", "setting": "4 lbs. (1.81 kg) dry wt. per metric ton of finished feed, 7% CV, 1000 CFU/gram of feed", "result": "about 30 days"}
    ]}
  ]
}
